Calls of active or inactive are those of the source. No cut-off for these calls is given here.

One assay concerns Rattus norvegicus. Put plainly: Dopaminergic activity in apomorphine-induced Wistar rat assessed as licking count at 0.5 mg/kg, iv treated 15 mins before apomorphine challenge measured after 10 mins for 60 mins by behavioral study. Type of assay: functional.
Conditions: not given
As to `O=C(CCCN1CCC(O)(c2ccc(Cl)cc2)CC1)c1ccc(F)cc1` [HALOPERIDOL], the Activity is recorded as 3.667.

A further assay has as its system Rattus norvegicus. The experiment in a line: Dopaminergic activity in apomorphine-induced Wistar rat assessed as licking count at 30 mg/kg, ip treated 15 mins before apomorphine challenge measured after 10 mins for 60 mins by behavioral study. Particulars: route intraperitoneal.
`COc1ccc(C(=O)/C=C/N2CCC(O)(c3ccccc3)CC2)c(O)c1`: the Activity was determined as 1800.

For `COc1ccc(C(=O)/C=C/N2CCC(Cc3ccccc3)CC2)c(O)c1`, the Activity is 520.

As to `COc1ccc(C(=O)/C=C/N2CCC(O)(c3ccc(Br)cc3)CC2)c(O)c1`, the Activity is 1140.

Turning to `O=C(/C=C/N1CCC(O)(c2ccc(O)cc2)CC1)c1ccc(O)cc1O`, the Activity turned out to be 1450.

As for `O=C(/C=C/N1CCC(O)(c2ccccc2)CC1)c1ccc(O)cc1O`, the Activity is 1317.

Turning to `COc1ccc(C(=O)/C=C/N2CCC(O)(c3ccc(O)cc3)CC2)c(O)c1`, the Activity is on record as 2675.

As to `COc1ccc(C(=O)/C=C/N2CCC(c3ccc(O)cc3)CC2)c(O)c1`, the Activity amounted to 1325.

With `O=C(/C=C/N1CCC(O)(c2ccc(Cl)cc2)CC1)c1ccc(O)cc1O`, the Activity was determined as 115.

`O=C(/C=C/N1CCC(O)(c2ccc(Br)cc2)CC1)c1ccc(O)cc1O`: the Activity was 1860.

On to `COc1ccc(C(=O)/C=C/N2CCC(O)(c3ccc(Cl)cc3)CC2)c(O)c1`, for which the Activity is 1575.

Turning to `O=C(/C=C/N1CCC(c2ccc(O)cc2)CC1)c1ccc(O)cc1O`, the Activity was determined as 664.

Take `O=C(/C=C/N1CCC(Cc2ccccc2)CC1)c1ccc(O)cc1O`: the Activity is on record as 618.

The test system of a further assay is Rattus norvegicus. Put plainly: Effect on dopaminergic activity in apomorphine-induced Wistar rat assessed as licking count at 10 to 30 mg/kg, ip treated 15 mins before apomorphine challenge measured after 10 mins for 60 mins by behavioral study.
Conditions: not given
On to `O=C(/C=C/N1CCC(O)(c2ccc(Cl)cc2)CC1)c1ccc(O)cc1O`, for which the outcome was Active.

The record behind these values is ChEMBL document CHEMBL1152598, “Synthesis and dopaminergic activity of some E-3-(piperidin-1-yl)-1-(4-substituted phenyl)prop-2-en-1-one derivatives” (2009).
